According to ChEMBL document CHEMBL5143757, “Combination of Cyclin-Dependent Kinase 4 Inhibitors and Androgen Receptor Inhibitors as Cancer Therapy” (2022):

Experiments:
Format in all cases: functional
Settings in all cases: 96 h, read-out: GI
[1] = Growth inhibition of human LNCaP/AR cells assessed as decrease in tumor spheroid growth at 30 nM with media replenishment twice per week along with 3 to 4-day interval compound in presence of enzalutamide relative to control
[2] = Growth inhibition of human LNCaP/AR cells assessed as decrease in tumor spheroid growth at 30 nM with media replenishment twice per week along with 3 to 4-day interval compound relative to control
[3] = Growth inhibition of human LNCaP/AR cells assessed as decrease in tumor spheroid growth at 100 nM with media replenishment twice per week along with 3 to 4-day interval compound relative to control
[4] = Growth inhibition of human LNCaP/AR cells assessed as decrease in tumor spheroid growth at 1000 nM with media replenishment twice per week along with 3 to 4-day interval compound relative to control
[5] = Growth inhibition of human LNCaP/AR cells assessed as decrease in tumor spheroid growth at 300 nM with media replenishment twice per week along with 3 to 4-day interval compound in presence of enzalutamide relative to control
[6] = Growth inhibition of human LNCaP/AR cells assessed as decrease in tumor spheroid growth at 300 nM with media replenishment twice per week along with 3 to 4-day interval compound relative to control
[7] = Growth inhibition of human LNCaP/AR cells assessed as decrease in tumor spheroid growth at 1000 nM with media replenishment twice per week along with 3 to 4-day interval compound in presence of Compound A relative to control
[8] = Growth inhibition of human LNCaP/AR cells assessed as decrease in tumor spheroid growth at 1000 nM with media replenishment twice per week along with 3 to 4-day interval compound in presence of palbociclib relative to control

SMILES	inhibition of growth at 0.03 µM [1] [%]	inhibition of growth at 0.03 µM [2] [%]	inhibition of growth at 0.1 µM [3] [%]	inhibition of growth at 1 µM [4] [%]	inhibition of growth at 0.3 µM [5] [%]	inhibition of growth at 0.3 µM [6] [%]	inhibition of growth at 1 µM [7] [%]	inhibition of growth at 1 µM [8] [%]
CC(=O)c1c(C)c2cnc(Nc3ccc(N4CCNCC4)cn3)nc2n(C2CCCC2)c1=O [PALBOCICLIB]	47	5	24					
CC(C)n1c(C(C)(C)O)nc2c(F)cc(-c3nc(N[C@@H]4CCOC[C@H]4O)ncc3Cl)cc21 [ATIRMOCICLIB]			27	53	70	38		
CNC(=O)c1ccc(N2C(=S)N(c3ccc(C#N)c(C(F)(F)F)c3)C(=O)C2(C)C)cc1F [ENZALUTAMIDE]				46			70	47
